In article PMC8956739, “A synthetic lipopeptide targeting top-priority multidrug-resistant Gram-negative pathogens” (Nature Communications, 2022):
≈ marks a conversion by molar mass, not a printed value. Where “and” joins values, the source holds several entries; their conditions need not be identical. Equal entries are not always repeated. Residues, ends and D or L forms follow the SMILES beside them.

What was measured:
[1] = system: K. pneumoniae FADDI-KP065; format: cell-based, Klebsiella pneumoniae; details: FADDI-KP065
Method in brief: (§1)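 Each strain is tested in cation-adjusted Mueller–Hinton broth using the micro-dilution technique, and growth inhibition gives the MIC.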

[2] = system: K. pneumoniae FADDI-KP032; format: cell-based, Klebsiella pneumoniae; details: FADDI-KP032
Method in brief: as §1

[3] = system: A. baumannii FADDI-AB034; format: cell-based, Acinetobacter baumannii; details: FADDI-AB034
Method in brief: as §1

[4] = system: A. baumannii FADDI-AB030; format: cell-based, Acinetobacter baumannii; details: FADDI-AB030
Method in brief: as §1

[5] = system: A. baumannii ATCC 19606; format: cell-based, Acinetobacter baumannii; details: ATCC 19606
Method in brief: (§2)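 Susceptibility: microdilution MIC in CaMHB.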

[6] = system: Swiss mice, kidney; test: Nephrotoxicity in mice (kidney histopathology); format: in vivo, mouse; details: for Kidney histopathology (SQS Score): 72 mg/kg/d subcutaneously in six divided doses every 2 h, n = 3; for Kidney histopathology, mice with the SQS score: mouse, in vivo
Method in brief: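 Female Swiss mice (7-week-old, 22–28 g) received lipopeptides in saline either s.c. at 12 mg/kg ×6 every 2 h (total 72 mg/kg, n = 3) or i.p. at 20 or 25 mg/kg ×6 every 2 h (total 120 mg/kg, n = 6; 150 mg/kg, n = 3). Right kidney collected 20 h after last dose, fixed in 10% buffered formalin (pH 7.4), histology scored blinded.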

[7] = system: P. aeruginosa ATCC 27853; test: Neutropenic mouse bloodstream infection model; format: in vivo; details: single IV dose 4 mg/kg; for Log10 CFU/mL blood at 4 h, Mean / Δlog10 CFU/mL blood (mean) / Log10 CFU/mL blood at 4 h, single mouse: 4 h; for Δlog10 CFU/mL blood (mean): treated minus control, mean of replicates; for Δlog10 CFU/mL blood (mean) / Log10 CFU/mL blood at 4 h, single mouse / Delta Log10 CFU/mL blood at 4 h, single mouse: 4 mg/kg; for Delta Log10 CFU/mL blood at 4 h, single mouse: treated mouse minus mean of vehicle mice
Method in brief: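 Female Swiss mice made neutropenic with cyclophosphamide (150 mg/kg day −4, 100 mg/kg day −1), infected IV with 50 µL of 4 × 10^8 CFU/mL. Lipopeptide 4 mg/kg (free base) IV at 2 h post-inoculation, n = 3. Efficacy = Δlog10 CFU/mL blood versus saline at 4 h post-dose.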

[8] = system: P. aeruginosa FADDI-PA025; format: cell-based, Pseudomonas aeruginosa; details: FADDI-PA025
Method in brief: as §1

[9] = system: P. aeruginosa ATCC 27853; format: cell-based, Pseudomonas aeruginosa; details: ATCC 27853
Method in brief: as §2

[10] = system: P. aeruginosa FADDI-PA038; format: cell-based, Pseudomonas aeruginosa; details: FADDI-PA038
Method in brief: as §1

[11] = system: Swiss mice; test: Acute toxicity in mice (maximum tolerated dose, IV bolus); format: in vivo, mouse; details: replicates 1-4
Procedure: (§3) Lipopeptide solutions were prepared in 0.9% saline and stored at 4 °C before use. Swiss mice (female, 7-week-old, 22–28 g) were used in the study. A mouse was administered an intravenous bolus of the lipopeptide (mg/kg free base) through a lateral tail vein (≤0.1 mL). After the injection, the mouse was released back into the cage and monitored for clinical signs of toxicity from 0 to 24 h after injection as follows: every 10 min in the first 2 h, every half hour from 2 to 4 h, every hour from 4 to 12 h, and every 2 h from 12 to 24 h.

[12] = as above; format: in vivo, mouse; details: mouse, in vivo, iv, single IV bolus dose, replicates 1-4; read-out: MTD, single replicate
Procedure: as §3

[13] = system: human subjects; details: in vivo; cited from earlier work

CC[C@@H]1NC(=O)[C@@H](CC(C)C)NC(=O)[C@H](CCN)NC(=O)[C@@H](NC(=O)[C@H](CN)NC(=O)[C@@H](NC(=O)[C@H](CCN)NC(=O)c2cc(Cl)cc(Cl)c2)[C@@H](C)O)CCNC(=O)[C@H]([C@@H](C)O)NC(=O)[C@H](CCN)NC(=O)[C@H](CCN)NC1=O [Lipopeptide F381] (HELM PEPTIDE1{[O=C(c1cc(Cl)cc(Cl)c1)[*:2]].[Dab].T.[NC[C@H](N[*:1])C(=O)[*:2]].[Dab].[Dab].[dL].[Abu].[Dab].[Dab].T}$PEPTIDE1,PEPTIDE1,5:R3-11:R2$$$V2.0)
MIC K. pneumoniae FADDI-KP065 [1]: 0.5 mg/L (≈ 0.431 µM)
MIC K. pneumoniae FADDI-KP032 [2]: <0.125 mg/L
MIC A. baumannii FADDI-AB034 [3]: 0.25 mg/L (≈ 0.215 µM)
MIC A. baumannii FADDI-AB030 [4]: 0.25 mg/L (≈ 0.215 µM)
MIC A. baumannii ATCC 19606 [5]: 0.5 mg/L (≈ 0.431 µM)
Kidney histopathology (SQS Score) [6]: +1 (SQS + 1 = mild damage (overall score, 1 to <15))
Kidney histopathology, mice with the SQS score [6]: 1/3
Log10 CFU/mL blood at 4 h, Mean [7]: 4.49 Log10 CFU/mL blood
Δlog10 CFU/mL blood (mean) [7]: −3.45 log10 CFU/mL blood
Log10 CFU/mL blood at 4 h, single mouse [7]: 4.47 Log10 CFU/mL blood and 4.87 Log10 CFU/mL blood and 4.12 Log10 CFU/mL blood
Delta Log10 CFU/mL blood at 4 h, single mouse [7]: -3.47 Log10 CFU/mL blood and -3.07 Log10 CFU/mL blood and -3.82 Log10 CFU/mL blood
MIC P. aeruginosa FADDI-PA025 [8]: 0.5 mg/L (≈ 0.431 µM)
MIC P. aeruginosa ATCC 27853 [9]: 0.25 mg/L (≈ 0.215 µM)
MIC, No Survanta [9]: 0.5 mg/L (≈ 0.431 µM)
MIC P. aeruginosa FADDI-PA038 [10]: 1 mg/L (≈ 0.862 µM)
MTD, single replicate [11]: 4.7 mg/kg and 4 mg/kg
MTD [12]: 5 mg/kg

CC[C@@H]1NC(=O)[C@@H](CC(C)C)NC(=O)[C@H](CCN)NC(=O)[C@@H](NC(=O)[C@H](CN)NC(=O)[C@@H](NC(=O)[C@H](CCN)NC(=O)c2ccc(-c3ccccc3)cc2)[C@@H](C)O)CCNC(=O)[C@H]([C@@H](C)O)NC(=O)[C@H](CCN)NC(=O)[C@H](CCN)NC1=O [Lipopeptide F477] (HELM PEPTIDE1{[O=C(c1ccc(-c2ccccc2)cc1)[*:2]].[Dab].T.[NC[C@H](N[*:1])C(=O)[*:2]].[Dab].[Dab].[dL].[Abu].[Dab].[Dab].T}$PEPTIDE1,PEPTIDE1,5:R3-11:R2$$$V2.0)
MIC K. pneumoniae FADDI-KP065 [1]: 0.25 mg/L (≈ 0.214 µM)
MIC K. pneumoniae FADDI-KP032 [2]: 0.25 mg/L (≈ 0.214 µM)
MIC A. baumannii FADDI-AB034 [3]: 0.25 mg/L (≈ 0.214 µM)
MIC A. baumannii FADDI-AB030 [4]: 0.5 mg/L (≈ 0.428 µM)
MIC A. baumannii ATCC 19606 [5]: 1 mg/L (≈ 0.857 µM)
Kidney histopathology (SQS Score) [6]: +1 (SQS + 1 = mild damage (overall score, 1 to <15))
Kidney histopathology, mice with the SQS score [6]: 1/3
Log10 CFU/mL blood at 4 h, Mean [7]: 3.39 Log10 CFU/mL blood
Δlog10 CFU/mL blood (mean) [7]: −3.89 log10 CFU/mL blood
Log10 CFU/mL blood at 4 h, single mouse [7]: 3.09 Log10 CFU/mL blood and 3.94 Log10 CFU/mL blood and 3.15 Log10 CFU/mL blood
Delta Log10 CFU/mL blood at 4 h, single mouse [7]: -4.19 Log10 CFU/mL blood and -3.34 Log10 CFU/mL blood and -4.13 Log10 CFU/mL blood
MIC P. aeruginosa FADDI-PA025 [8]: 1 mg/L (≈ 0.857 µM)
MIC P. aeruginosa ATCC 27853 [9]: 1 mg/L (≈ 0.857 µM)
MIC, No Survanta [9]: 1 mg/L (≈ 0.857 µM)
MIC P. aeruginosa FADDI-PA038 [10]: 1 mg/L (≈ 0.857 µM)
MTD, single replicate [11]: 10.1 mg/kg and 11.1 mg/kg
MTD [12]: 10 mg/kg

SPR206
single dose at which neurotoxicity was observed [13]: exceeding 200 mg
